Structures can show the parent of a compound that is named as a salt.
Row | melting point | SMILES
1 | 302 °C | O=C(O)c1ccc(-c2nn(Cc3cccc(Cl)c3)c(=S)[nH]2)cc1 [Example 1, 4-[1-[(3-Chlorophenyl)methyl]-4,5-dihydro-5-thioxo-1H-1,2,4-triazol-3-yl]-benzoic acid]
2 | 302 to 304 °C | CN(C)C(=O)c1ccc(-c2nn(Cc3cccc(Cl)c3)c(=S)[nH]2)cc1 [Example 4, 4-[1-[(3-Chlorophenyl)methyl]-4,5-dihydro-5-thioxo-1H-1,2,4-triazol-3-yl]-N,N-dimethyl-benzamide]
3 | 220 to 222 °C | C[C@@H](NC(=O)c1ccc(-c2nn(Cc3cccc(Cl)c3)c(=S)[nH]2)cc1)[C@@H](O)c1ccccc1 [Example 6, [1R, 2S]-4-[1-[(3-Chlorophenyl)methyl]-4,5-dihydro-5-thioxo-1H-1,2,4-triazol-3-yl]-N-(2-hydroxy-1-methyl-2-phenylethyl)-benzamide]
4 | 218 to 220 °C | CC(C)CCNC(=O)c1ccc(-c2nn(Cc3cccc(Cl)c3)c(=S)[nH]2)cc1 [Example 5, 4-[1-[(3-Chlorophenyl)methyl]-4,5-dihydro-5-thioxo-1H-1,2,4-triazol-3-yl]-N-(3-methylbutyl)-benzamide]
5 | 310 to 312 °C | NC(=O)c1ccc(-c2nn(Cc3cccc(Cl)c3)c(=S)[nH]2)cc1 [Example 3, 4-[1-[(3-Chlorophenyl)methyl]-4,5dihydro-5-thioxo-1H-1,2,4-triazol-3-yl]-benzamide]
6 | 234 to 238 °C | O=C(O)c1ccccc1-c1nn(Cc2cccc(Cl)c2)c(=S)[nH]1 [Example 11, 2-[1-[(3-Chlorophenyl)methyl]-4,5-dihydro-5-thioxo-1H-1,2,4-triazol-3-yl]-benzoic acid]
7 | 263.5 to 264.5 °C | COC(=O)c1ccc(-c2nn(Cc3cccc(Cl)c3)c(=S)[nH]2)cc1 [Example 2, Methyl 4-[1-[(3-Chlorophenyl)methyl]-4,5-dihydro-5-thioxo-1H-1,2,4-triazol-3-yl]-benzoate]
8 | 188 to 190 °C | O=C(NCCO)c1ccc(-c2nn(Cc3cccc(Cl)c3)c(=S)[nH]2)cc1 [Example 7, 4-[1-[(3-Chlorophenyl)methyl]-4,5-dihydro-5-thioxo-1H-1,2,4-triazol-3-yl]-N-(2-hydroxyethyl)-benzamide]

The remaining lines, values behind:

Row | SMILES | melting point
9 | N#CCNC(=O)c1cccc(Cn2nc(-c3ccccc3Cl)[nH]c2=S)c1 [Example 17] | 178 to 182 °C
10 | O=C(NCCF)c1cccc(Cn2nc(-c3ccccc3Cl)[nH]c2=S)c1 [Example 18] | 165 to 168 °C
11 | O=C(c1ccc(-c2nn(Cc3cccc(Cl)c3)c(=S)[nH]2)cc1)N1CCN(c2cccc(Cl)c2)CC1 (as salt: hydrochloride) [Example 8, 2-[(3-Chlorophenyl)methyl]-5-[4-[[4-(3-chlorophenyl)-1-piperazinyl]carbonyl]phenyl]-2,4-dihydro-3H-1,2,4-triazole-3-thione] | 260 to 262 °C
12 | COC(=O)C(CO)NC(=O)c1cccc(-c2nn(Cc3cccc(Cl)c3)c(=S)[nH]2)c1 (stereo not shown) [Example 14] | 188 to 196 °C
13 | CN(C)C(=O)c1cccc(-c2nn(Cc3cccc(Cl)c3)c(=S)[nH]2)c1 [Example 16, 3-{1-[(3-Chlorophenyl)methyl]-1,2-dihydro-5thioxo-1H[1,2,4]triazol-3-yl}-N,N-dimethylbenzamide] | 184 to 187 °C
14 | CN(C)CC(C)(C)CNC(=O)c1cccc(-c2nn(Cc3cccc(Cl)c3)c(=S)[nH]2)c1 [Example 15, 3-{1-[(3-Chlorophenyl)methyl]-1,2-dihydro-5thioxo-1H[1,2,4]triazol-3-yl}-N-(2-methyl-2-dimethylaminomethylpropyl)benzamide] | 173 to 175 °C
15 | O=C(O)c1cccc(-c2nn(Cc3cccc(Cl)c3)c(=S)[nH]2)c1 [Example 12, 3-[1-[(3-Chlorophenyl)methyl]-4,5-dihydro-5-thioxo-1H-1,2,4-triazol-3-yl]-benzoic acid] | 314 to 316 °C
16 | NS(=O)(=O)c1ccc(-c2nn(Cc3cccc(Cl)c3)c(=S)[nH]2)cc1 [Example 13, 4-[1-[(3-chlorophenyl)methyl]-4,5dihydro-5-thioxo-1H-1,2,4-triazol-3-yl]-benzenesulfonamide] | 281 to 283 °C
